In US8637563B2, “Non-peptide thrombopoietin receptor agonist in the treatment of cancer and pre-cancerous syndromes” (GlaxoSmithKline LLC, priority 2007, dated 2014):
≈ marks a conversion by molar mass, not a printed value.

What was measured:
Type in all cases: cell-based
[1] = tested on: Akt (Ser473) activation in washed human platelets; assay: Activation of Akt in human platelets; conditions: TPO 100 ng/mL; for Akt activation (phosphorylation), agent alone: 15 minutes alone, Compound A (SB) 10 mM, phosphorylation-specific antibodies, Blot 1
Description: Washed human platelets from healthy volunteers were treated with vehicle (V) [0.33% DMSO], 100 ng/mL TPO [recombinant human thrombopoietin obtained from R&D Systems, Inc., Minneapolis, Minn., USA, or SB (SB=Compound A in Blot 1) (10 mM) for 15 minutes alone, or 13 minutes alone followed by 2 minutes with 1 mM ADP (+ADP). Protein extracts were probed for Akt (Ser473) activation. Results are representative of 3 individual experiments.
Compound A was compared to TPO in human platelets through the examination of a signal transduction pathway known to be activated through TPOR [TPO receptor] stimulation; specifically, Pi3K/Akt pathway activation [Chen, J., et al., Blood, 86, 4054-4062 (1995); Kojima, H., et al., Thrombosis & Haemostassis, 74, 1541-1545 (1995); Ezumi, Y., et al., FEBS Letters, 374, 48-52 (1995)].

HepG2 cells = assay: Liver Cancer Assay (CellTiter Glo); conditions: Homo sapiens, HepG2, 72 hours, n=4 wells, read-out: IC50, decrease in the number of viable cells
Description: HepG2 is a human hepatocellular carcinoma cell line. Active cell determinations were performed on HepG2 cells by plating 2×10^4 cells/mL in 96-well plates in culture medium containing 10% FBS and incubating overnight in 5% CO2 at 37°. Cells were then treated with Compound A at 0, 0.1, 0.4, 1, 4, 10, 40 ug/mL and incubated for 72 hours. Cell proliferation was measured using the CellTiter Glo (Promega) reagent according to the manufacturer's protocol. Data is the mean of n=4 wells reported as the percent of the control (0 ug/mL of Compound A). Compound A induced a decrease in the number of viable cells with an IC50 of approximately 6 ug/mL.

[2] = tested on: SR Immunoblastic Large Cell Leukemia cells; assay: Cancer Proliferation Assay (3H-thymidine uptake), SR; conditions: 3 days, 3H-TdR uptake
Description: (§1) Flat-bottom 96-well microtiter tissue culture plates (Costar, Cambridge, Mass.) were used for the assay. Cultures were performed in replicates of 4 wells; each well contained 1×10^4 cells. Six concentrations of Compound A (ranging from 40 μg/mL to 100 ng/mL) were tested in the absence and presence of 10 ng/mL G-CSF, 100 ng/mL of TPO or 5 U/mL of EPO. Cells were also tested in medium alone, G-CSF alone, TPO alone, or EPO alone to establish 100% of control values. The final volume in each well was 200 μL. Plates were placed in a humidified 5% CO2 incubator at 37° C. for 3 days. Proliferation was measured by the uptake of tritiated thymidine (^3H-TdR) by pulsing wells with 1 μCi of ^3H-TdR for the final 18 hours of incubation, harvesting the plate on a Brandel 96-well cell harvester (Gaithersburg, Md.) and measuring radioactivity on the filter mats in a Wallac 1450 Microbeta TriLux scintillation counter (Turku, Finland). The effect of Compound A was determined by comparing the results of cells treated with test compound with control cells (100% of control).

HOP-62 (NSCLC) = assay: Solid Tumor Cell Line Proliferation Assay, HOP-62; conditions: Homo sapiens; HOP-62, 72 hr, Cell Titer Glo
Description: (§2) Cells in log phase growth were seeded in a 96-well plate at 2500 cells/well in 50 uL medium and incubated at 37° C., 5% CO2 overnight. Compound A was diluted in medium and added at 0.1, 0.4, 1, 4, 10 and 40 ug/mL. Following a 72 hr incubation at 37° C., 5% CO2. The CellTiter-Glo Luminescent Cell Viability Assay (ProMega Corp) was performed according to the manufacturer's instructions. Briefly following a 30 min room temperature incubation 100 uL CELLTiter Glo reagent was added to each well and mixed for 2 minutes. Luminescence was recorded following a 10 minute room temperature incubation using a PerkinElmer Microbeta luminescence counter. IC50 was determined by EXCel Fit 4.2.1.

NCI-H23 (NSCLC) = assay: Solid Tumor Cell Line Proliferation Assay, NCI-H23; conditions: Homo sapiens; NCI-H23, 72 hr, Cell Titer Glo
Description: as §2

[3] = tested on: K562 Chronic Myelogenous leukemia cells; assay: Cancer Proliferation Assay (3H-thymidine uptake), K562; conditions: Homo sapiens; K562, 3 days, 3H-TdR uptake
Description: as §1

NCI-H226 (NSCLC) = assay: Solid Tumor Cell Line Proliferation Assay, NCI-H226; conditions: Homo sapiens; NCI-H226, 72 hr, Cell Titer Glo
Description: as §2

NCI-H322M (NSCLC) = assay: Solid Tumor Cell Line Proliferation Assay, NCI-H322M; conditions: Homo sapiens, 72 hr, Cell Titer Glo
Description: as §2

NCI-H522 (NSCLC) = assay: Solid Tumor Cell Line Proliferation Assay, NCI-H522; conditions: Homo sapiens; NCI-H522, 72 hr, Cell Titer Glo
Description: as §2

EKVX (NSCLC) = assay: Solid Tumor Cell Line Proliferation Assay, EKVX; conditions: Homo sapiens, 72 hr, Cell Titer Glo
Description: as §2

[4] = tested on: RPMI-8226 Plasmacytoma cells; assay: Cancer Proliferation Assay (3H-thymidine uptake), RPMI-8226; conditions: Homo sapiens; RPMI-8226, 3 days, 3H-TdR uptake
Description: as §1

NCI-H460 (NSCLC) = assay: Solid Tumor Cell Line Proliferation Assay, NCI-H460; conditions: Homo sapiens; NCI-H460, 72 hr, Cell Titer Glo
Description: as §2

[5] = tested on: CCRF-CEM Lymphoblastic T cell leukemia cells; assay: Cancer Proliferation Assay (3H-thymidine uptake), CCRF-CEM; conditions: Homo sapiens, 3 days, 3H-TdR uptake
Description: as §1

A549 (NSCLC) = assay: Solid Tumor Cell Line Proliferation Assay, A549; conditions: Homo sapiens; A549, 72 hr, Cell Titer Glo
Description: as §2

HOP-92 (NSCLC) = assay: Solid Tumor Cell Line Proliferation Assay, HOP-92; conditions: Homo sapiens; HOP-92, 72 hr, Cell Titer Glo
Description: as §2

[6] = tested on: MOLT-4 Acute Lymphoblastic T cell leukemia cells; assay: Cancer Proliferation Assay (3H-thymidine uptake), MOLT-4; conditions: Homo sapiens; MOLT-4, 3 days, 3H-TdR uptake
Description: as §1

[7] = tested on: HepG2 (Hepatocellular carcinoma); assay: Solid Tumor Cell Line Proliferation Assay, HepG2; conditions: Homo sapiens; HepG2, 72 hr, Cell Titer Glo
Description: Cells in log phase growth were seeded in a 96-well plate at 2500 cells/well in 50 uL medium and incubated at 37° C., 5% CO2 overnight. […] Following a 72 hr incubation at 37° C., 5% CO2. The CellTiter-Glo Luminescent Cell Viability Assay (ProMega Corp) was performed according to the manufacturer's instructions. Briefly following a 30 min room temperature incubation 100 uL CELLTiter Glo reagent was added to each well and mixed for 2 minutes. Luminescence was recorded following a 10 minute room temperature incubation using a PerkinElmer Microbeta luminescence counter. IC50 was determined by EXCel Fit 4.2.1.

Molecule: CC1=NN(c2ccc(C)c(C)c2)C(=O)/C1=N\Nc1cccc(-c2cccc(C(=O)O)c2)c1O [Compound A, 3′-[(2Z)-[1-(3,4-dimethylphenyl)-1,5-dihydro-3-methyl-5-oxo-4H-pyrazol-4-ylidene]hydrazino]-2′-hydroxy-[1,1′-biphenyl]-3-carboxylic acid]
- Akt activation (phosphorylation), agent alone [1]: no activation was observed
- IC50 (HepG2 cells): ~6 µg/mL (≈ 13.6 µM)
- IC50 [2]: 0.77 µg/mL (≈ 1.74 µM)
- IC50 (HOP-62 (NSCLC)): 10.6 µg/mL (≈ 24 µM)
- IC50 (NCI-H23 (NSCLC)): 13.9 µg/mL (≈ 31.4 µM)
- IC50 [3]: 1.8 µg/mL (≈ 4.07 µM)
- IC50 (NCI-H226 (NSCLC)): 11 µg/mL (≈ 24.9 µM)
- IC50 (NCI-H322M (NSCLC)): 8.3 µg/mL (≈ 18.8 µM)
- IC50 (NCI-H522 (NSCLC)): 5.9 µg/mL (≈ 13.3 µM)
- IC50 (EKVX (NSCLC)): 12.7 µg/mL (≈ 28.7 µM)
- IC50 [4]: 5.9 µg/mL (≈ 13.3 µM)
- IC50 (NCI-H460 (NSCLC)): 5.7 µg/mL (≈ 12.9 µM)
- IC50 [5]: 0.74 µg/mL (≈ 1.67 µM)
- IC50 (A549 (NSCLC)): 9.1 µg/mL (≈ 20.6 µM)
- IC50 (HOP-92 (NSCLC)): 13.5 µg/mL (≈ 30.5 µM)
- IC50 [6]: 0.56 µg/mL (≈ 1.27 µM)
- IC50 [7]: 5.61 µg/mL (≈ 12.7 µM)

Molecule: Nc1ncnc2c1ncn2[C@@H]1O[C@H](COP(=O)(O)OP(=O)(O)O)[C@@H](O)[C@H]1O [ADP, reference compound]
- Akt activation (phosphorylation), agent alone [1]: no activation observed

Molecule: TPO: recombinant human thrombopoietin obtained from R&D Systems, Inc.
- Akt activation in combination with ADP (preincubation with agent) ([1]; 13 minutes alone followed by 2 minutes with ADP, Compound A 10 mM): significant enhancement of activation of Akt
- Akt activation (phosphorylation), agent alone [1]: significant Akt activation
